Measurements as given in the NIST ThermoML archive (doi:10.1021/acs.jced.7b00722).
Numbers after ± are expanded uncertainties.

How the values were obtained:
[1] = wn = mass fraction of the nth substance listed; details: 298.15 K, 100 kPa, Liquid; for viscosity: Falling or rolling sphere viscometry; for mass density: Vibrating tube method
[2] = refractive index (Na D-line) (dimensionless); wn = mass fraction of the nth substance listed; details: 298.15 K, 100 kPa, Liquid, Standard Abbe refractometry
[3] = 298.15 K; 100 kPa; Liquid; Falling or rolling sphere viscometry
[4] = refractive index (Na D-line) (dimensionless); details: 298.15 K; 100 kPa; Liquid; Standard Abbe refractometry

O=C([O-])[C@H](O)[C@@H](O)C(=O)[O-].[K+].[K+] [dipotassium L-tartrate] + O
Details | mass density, [1] [kg/m3] | refractive index, [2] | viscosity, [1] [mPa·s]
w1 = 0.02 | 1006 ± 11 | 1.3345 ± 0.0024 | 0.929 ± 0.037
w1 = 0.04 | 1019.6 ± 14 | 1.3374 ± 0.0029 | 0.965 ± 0.037
w1 = 0.06 | 1033.3 ± 14 | 1.3403 ± 0.0029 | 0.998 ± 0.039
w1 = 0.08 | 1046.9 ± 14 | 1.3432 ± 0.0029 | 1.04 ± 0.048
w1 = 0.1 | 1060.6 ± 14 | 1.3461 ± 0.0029 | 1.09 ± 0.045
w1 = 0.15 | 1094.7 ± 14 | 1.3533 ± 0.0029 | 1.191 ± 0.047
w1 = 0.2 | 1128.9 ± 14 | 1.3606 ± 0.0029 | 1.313 ± 0.056
w1 = 0.25 | 1163 ± 14 | 1.3678 ± 0.0029 | 1.46 ± 0.058
w1 = 0.3 | 1197.1 ± 14 | 1.375 ± 0.0029 | 1.59 ± 0.064
w1 = 0.4 | 1265.4 ± 14 | 1.3895 ± 0.0029 | 1.91 ± 0.068

O [water]
Details | refractive index | viscosity [mPa·s]
[3] | – | 0.894 ± 0.011
[4] | 1.3327 ± 0.0004 | –

O [water] + O=C([O-])[C@H](O)[C@@H](O)C(=O)[O-].[K+].[K+]
w2 = 0
Details | refractive index | viscosity [mPa·s]
[1] | – | 0.894 ± 0.011
[2] | 1.3327 ± 0.0004 | –
